According to patent US20240270695A1, “COMPOUNDS, COMPOSITIONS AND METHODS OF TREATING DISORDERS” (Chengdu Anticancer Bioscience LTD, priority 2021, published 2024):

Experiments:
[1] = tested on: RPE-Neo or RPE-MYC or RPE-MYC expressing an EGFP-Histone 2B fusion protein; assay: MTT assays of cellular proliferation; format: cell-based; details: Homo sapiens, min. effective conc., read-out: Proliferative arrest (<50%)
[2] = tested on: RPE-Neo or RPE-MYC or RPE-MYC expressing an EGFP-Histone 2B fusion protein; assay: Phenotypic screening assay (arrest in mitosis, change in DNA content, cell death; GE IN-Cell Analyzer 2000); format: cell-based; details: Homo sapiens, compounds 20 nM to 20 μM, 24, 48 or 72 hours
[3] = read-out: Min. Effective conc. for Polyploidy (≥10%)
[4] = min. effective conc., read-out: Cell Death (>30%)
[5] = min. effective conc., read-out: Mitotic Arrest (≥10%)

Row | Structure (SMILES) | minimal effective concentration [1] | minimal effective concentration [2, 3] | minimal effective concentration [2, 4] | minimal effective concentration [2, 5]
1 | COC(=O)C1=C(O)c2ccccc2N(Cc2ccc(C#N)cc2)C(=O)C1 [Example 26, Methyl 1-(4-cyanobenzyl)-5-hydroxy-2-oxo-2,3-dihydro-1H-benzo[b]azepine-4-carboxylate] | 30 to 1000 µM | – | – | –
2 | CNC(=O)C1=C(O)c2ccccc2N(Cc2ccc(C)c(Cl)c2)C(=O)C1 [Example 119, 1-(3-chloro-4-methylbenzyl)-5-hydroxy-N-methyl-2-oxo-2,3-dihydro-1H-benzo[b]azepine-4-carboxamide] | 10 to 30 µM | 10 to 30 µM | 10 to 30 µM | 10 to 30 µM
3 | CNC(=O)C1CC(=O)N(Cc2c(C)cccc2C)c2ccccc2C1=O (stereo not shown) [Example 99, 1-(2,6-dimethylbenzyl)-5-hydroxy-N-methyl-2-oxo-2,3-dihydro-1H-benzo[b]azepine-4-carboxamide] | 30 to 1000 µM | 30 to 1000 µM | 30 to 1000 µM | 30 to 1000 µM
4 | CNC(=O)C1=C(O)c2ccc(OC(F)F)cc2N(Cc2ccc(C)c(F)c2)C(=O)C1 [Example 129, 8-(difluoromethoxy)-1-(3-fluoro-4-methylbenzyl)-5-hydroxy-N-methyl-2-oxo-2,3-dihydro-1H-benzo[b]azepine-4-carboxamide] | 0.001 to 1 µM | 0.001 to 1 µM | 0.001 to 1 µM | 0.001 to 1 µM
5 | CNC(=O)C1=C(O)c2ccc(Br)cc2N(Cc2ccc(F)c(C)c2)C(=O)C1 [Example 132, 8-bromo-1-(4-fluoro-3-methylbenzyl)-5-hydroxy-N-methyl-2-oxo-2,3-dihydro-1H-benzo[b]azepine-4-carboxamide] | 1 to 10 µM | 1 to 10 µM | 1 to 10 µM | 1 to 10 µM
6 | CNC(=O)C1=C(O)c2ccccc2N(Cc2cccc(F)c2F)C(=O)C1 [Example 107, 1-(2,3-difluorobenzyl)-5-hydroxy-N-methyl-2-oxo-2,3-dihydro-1H-benzo[b]azepine-4-carboxamide] | 30 to 1000 µM | 30 to 1000 µM | 30 to 1000 µM | 30 to 1000 µM
7 | CNC(=O)C1=C(O)c2ccccc2N(Cc2ccc(F)c(C(F)(F)F)c2)C(=O)C1 [Example 118, 1-(4-fluoro-3-(trifluoromethyl)benzyl)-5-hydroxy-N-methyl-2-oxo-2,3-dihydro-1H-benzo[b]azepine-4-carboxamide] | 30 to 1000 µM | 30 to 1000 µM | 30 to 1000 µM | 30 to 1000 µM
8 | CNC(=O)C1=C(O)c2cc(F)ccc2N(Cc2ccc(C)c(F)c2)C(=O)C1 [Example 135, 7-fluoro-1-(3-fluoro-4-methylbenzyl)-5-hydroxy-N-methyl-2-oxo-2,3-dihydro-1H-benzo[b]azepine-4-carboxamide] | 1 to 10 µM | 1 to 10 µM | 1 to 10 µM | 1 to 10 µM
9 | COC(=O)Cc1ccc(CN2C(=O)CC(C(=O)OC)=C(O)c3ccccc32)cc1 [Example 42, Methyl 5-hydroxy-1-(4-(2-methoxy-2-oxoethyl)benzyl)-2-oxo-2,3-dihydro-1H-benzo[b]azepine-4-carboxylate] | 30 to 1000 µM | – | – | –
10 | COC(=O)C1=C(O)c2ccccc2N(Cc2cccc(F)c2)C(=O)C1 [Example 8, Methyl 1-(3-fluorobenzyl)-5-hydroxy-2-oxo-2,3-dihydro-1H-benzo[b]azepine-4-carboxylate] | 30 to 1000 µM | – | – | –
11 | COC(=O)C1=C(O)c2ccccc2N(Cc2cc(OC)cc(OC)c2)C(=O)C1 [Example 11, Methyl 1-(3,5-dimethoxybenzyl)-5-hydroxy-2-oxo-2,3-dihydro-1H-benzo[b]azepine-4-carboxylate] | 30 to 1000 µM | – | – | –
12 | COC(=O)C1=C(O)c2ccccc2N(Cc2ccc(OC(F)(F)F)cc2)C(=O)C1 [Example 32, Methyl 5-hydroxy-2-oxo-1-(4-(trifluoromethoxy)benzyl)-2,3-dihydro-1H-benzo[b]azepine-4-carboxylate] | 30 to 1000 µM | – | – | –
13 | COC(=O)C1=C(O)c2ccccc2N(Cc2ccc(C(F)(F)F)cc2)C(=O)C1 [Example 40, Methyl 5-hydroxy-2-oxo-1-(4-(trifluoromethyl)benzyl)-2,3-dihydro-1H-benzo[b]azepine-4-carboxylate] | – | 1 to 10 µM | 1 to 10 µM | 1 to 10 µM
14 | COC(=O)C1=C(O)c2ccccc2N(Cc2cnc3ccccc3c2)C(=O)C1 [Example 12, Methyl 5-hydroxy-2-oxo-1-(quinolin-3-ylmethyl)-2,3-dihydro-1H-benzo[b]azepine-4-carboxylate] | – | – | 30 to 1000 µM | –
15 | COC(=O)C1=C(O)c2ccccc2N(Cc2ccc(F)cc2F)C(=O)C1 [Example 18, Methyl 1-(2,4-difluorobenzyl)-5-hydroxy-2-oxo-2,3-dihydro-1H-benzo[b]azepine-4-carboxylate] | – | 30 to 1000 µM | 30 to 1000 µM | 30 to 1000 µM
16 | COC(=O)C1=C(O)c2ccccc2N(Cc2cccc(C)c2C)C(=O)C1 [Example 17, Methyl 1-(2,3-dimethylbenzyl)-5-hydroxy-2-oxo-2,3-dihydro-1H-benzo[b]azepine-4-carboxylate] | – | 1 to 10 µM | 1 to 10 µM | 1 to 10 µM
17 | COC(=O)C1=C(O)c2ccccc2N(Cc2cc(F)ccc2F)C(=O)C1 [Example 19, Methyl 1-(2,5-difluorobenzyl)-5-hydroxy-2-oxo-2,3-dihydro-1H-benzo[b]azepine-4-carboxylate] | – | 30 to 1000 µM | 30 to 1000 µM | 30 to 1000 µM
18 | COC(=O)C1=C(O)c2ccccc2N(Cc2ccccc2F)C(=O)C1 [Example 9, Methyl 1-(2-fluorobenzyl)-5-hydroxy-2-oxo-2,3-dihydro-1H-benzo[b]azepine-4-carboxylate] | – | 30 to 1000 µM | – | 30 to 1000 µM
19 | COC(=O)C1=C(O)c2ccccc2N(Cc2ccc(OC(F)F)cc2)C(=O)C1 [Example 33, Methyl 1-(4-(difluoromethoxy)benzyl)-5-hydroxy-2-oxo-2,3-dihydro-1H-benzo[b]azepine-4-carboxylate] | – | 1 to 10 µM | 1 to 10 µM | 1 to 10 µM
20 | CCNC(=O)C1=C(O)c2ccccc2N(Cc2ccc(C)c(F)c2)C(=O)C1 [Example 64, N-ethyl-1-(3-fluoro-4-methylbenzyl)-5-hydroxy-2-oxo-2,3-dihydro-1H-benzo[b]azepine-4-carboxamide] | – | 1 to 10 µM | 1 to 10 µM | 1 to 10 µM
21 | COC(=O)C1=C(O)c2ccccc2N(Cc2cc(F)cc(F)c2)C(=O)C1 [Example 20, Methyl 1-(3,5-difluorobenzyl)-5-hydroxy-2-oxo-2,3-dihydro-1H-benzo[b]azepine-4-carboxylate] | – | 30 to 1000 µM | 30 to 1000 µM | 30 to 1000 µM
22 | COC(=O)C1=C(O)c2cc(F)ccc2N(Cc2ccc(C)c(F)c2)C(=O)C1 [Example 52, Methyl 7-fluoro-1-(3-fluoro-4-methylbenzyl)-5-hydroxy-2-oxo-2,3-dihydro-1H-benzo[b]azepine-4-carboxylate] | – | 0.001 to 1 µM | 0.001 to 1 µM | 0.001 to 1 µM
23 | COC(=O)C1=C(O)c2ccccc2N(Cc2cc(F)c(F)c(F)c2)C(=O)C1 [Example 28, Methyl 5-hydroxy-2-oxo-1-(3,4,5-trifluorobenzyl)-2,3-dihydro-1H-benzo[b]azepine-4-carboxylate] | – | – | 30 to 1000 µM | –
24 | CCCC(=O)C1=C(O)c2ccccc2N(Cc2ccc(C)c(F)c2)C(=O)C1 [Example 57, 4-butyryl-1-(3-fluoro-4-methylbenzyl)-5-hydroxy-1,3-dihydro-2H-benzo[b]azepin-2-one] | – | 1 to 10 µM | 1 to 10 µM | 0.001 to 1 µM
25 | CCc1ccc(CN2C(=O)CC(C(=O)OC)=C(O)c3ccccc32)cc1 [Example 37, Methyl 1-(4-ethylbenzyl)-5-hydroxy-2-oxo-2,3-dihydro-1H-benzo[b]azepine-4-carboxylate] | – | 0.001 to 1 µM | 0.001 to 1 µM | 0.001 to 1 µM
26 | COC(=O)C1=C(O)c2ccccc2N(Cc2ccc(C)cc2C)C(=O)C1 [Example 29, Methyl 1-(2,4-dimethylbenzyl)-5-hydroxy-2-oxo-2,3-dihydro-1H-benzo[b]azepine-4-carboxylate] | – | 1 to 10 µM | 1 to 10 µM | 1 to 10 µM
27 | COC(=O)C1=C(O)c2ccccc2N(Cc2cc(C)cc(C)c2)C(=O)C1 [Example 6, Methyl 1-(3,5-dimethylbenzyl)-5-hydroxy-2-oxo-2,3-dihydro-1H-benzo[b]azepine-4-carboxylate] | – | 30 to 1000 µM | 30 to 1000 µM | 30 to 1000 µM
28 | COC(=O)C1=C(O)c2ccccc2N(Cc2ccc(OC)c(F)c2)C(=O)C1 [Example 48, Methyl 1-(3-fluoro-4-methoxybenzyl)-5-hydroxy-2-oxo-2,3-dihydro-1H-benzo[b]azepine-4-carboxylate] | – | 0.001 to 1 µM | 0.001 to 1 µM | 0.001 to 1 µM
29 | CCCc1ccc(CN2C(=O)CC(C(=O)OC)=C(O)c3ccccc32)cc1 [Example 49, Methyl 5-hydroxy-2-oxo-1-(4-propylbenzyl)-2,3-dihydro-1H-benzo[b]azepine-4-carboxylate] | – | 10 to 30 µM | 10 to 30 µM | 10 to 30 µM
